Values of other authors as cited in patent publication US20120003119A1, “ANTIMICROBIAL PEPTIDES” (priority 2007, published 2012).

Experiments:
Pseudomonas aeruginosa = settings: tested against the bacteria Pseudomonas aeruginosa; relative to XPF
[1] = combined with either magainin I or magainin II in a 1:1 molar ratio
animal red blood cells = settings: melittin isolated from bee venom

Molecule	times more active than XPF (Pseudomonas aeruginosa)	antimicrobial activity increased [1]	lytic to both microorganisms and animal red blood cells (animal red blood cells)
PGLa	4-5 times	20-50 fold	–
CC[C@H](C)[C@H](NC(=O)CN)C(=O)NCC(=O)N[C@@H](C)C(=O)N[C@H](C(=O)N[C@@H](CC(C)C)C(=O)N[C@@H](CCCCN)C(=O)N[C@H](C(=O)N[C@@H](CC(C)C)C(=O)N[C@H](C(=O)N[C@H](C(=O)NCC(=O)N[C@@H](CC(C)C)C(=O)N1CCC[C@H]1C(=O)N[C@@H](C)C(=O)N[C@@H](CC(C)C)C(=O)N[C@H](C(=O)N[C@@H](CO)C(=O)N[C@@H](Cc1c[nH]c2ccccc12)C(=O)N[C@H](C(=O)N[C@@H](CCCCN)C(=O)N[C@@H](CCCNC(=N)N)C(=O)N[C@@H](CCCCN)C(=O)N[C@@H](CCCNC(=N)N)C(=O)N[C@@H](CCC(N)=O)C(=O)N[C@@H](CCC(N)=O)C(N)=O)[C@@H](C)CC)[C@@H](C)CC)[C@@H](C)O)[C@@H](C)O)C(C)C)C(C)C [melittin]	–	–	very lytic
